{"source": "paper PMC5702381", "about": "(Advances in Therapy, 2017)", "key": {"[1]": {"conditions": "for AUCinf / C max: geometric mean ± SD; for CL/F: arithmetic mean ± SD; for t max: median (range)"}, "[2]": {"tested_on": "CYP2C19", "conditions": "cited from earlier work"}, "[3]": {"tested_on": "CYP2B6", "conditions": "cited from earlier work"}, "[4]": {"conditions": "healthy volunteers; cited from earlier work"}, "[5]": {"type": "in vivo, human", "conditions": "for CL/F: arithmetic mean ± SD"}, "[6]": {"conditions": "healthy volunteers; cited from earlier work", "remark": "listed apart in the source"}, "[7]": {"tested_on": "CYP2C19", "conditions": "in vitro; ref unpublished data; cited from earlier work"}, "[8]": {"tested_on": "CYP3A4", "conditions": "in vitro; ref unpublished data; cited from earlier work"}, "[9]": {"assay": "Safety assessments", "type": "in vivo, human"}, "[10]": {"tested_on": "CYP2C9", "conditions": "in vitro; ref unpublished data; cited from earlier work"}, "[11]": {"type": "in vivo, human", "conditions": "for CL/F: arithmetic mean ± SD", "remark": "listed apart in the source"}, "[12]": {"type": "in vivo, human", "conditions": "for CL/F: arithmetic mean ± SD", "remark": "listed apart in the source"}, "[13]": {"tested_on": "prothrombin time (PT)", "assay": "Study 15L-CL-018: warfarin pharmacodynamics", "type": "in vivo, human", "conditions": "for AUCPT;0–168 h: geometric mean ± SD"}, "[14]": {"conditions": "warfarin 25 mg + amenamevir 200 mg once daily, n = 18"}, "[15]": {"conditions": "warfarin 25 mg + amenamevir 400 mg once daily, n = 15"}, "[16]": {"conditions": "warfarin 25 mg alone, amenamevir 400 mg group, n = 17"}, "[17]": {"conditions": "warfarin + amenamevir 200 mg once daily"}, "[18]": {"conditions": "warfarin + amenamevir 400 mg once daily"}, "[19]": {"conditions": "warfarin alone, amenamevir 200 mg group"}, "[20]": {"conditions": "warfarin alone, amenamevir 400 mg group"}, "[21]": {"conditions": "in the presence of rifampicin vs amenamevir alone"}, "[22]": {"conditions": "with ketoconazole coadministration vs amenamevir alone"}}, "note": "Like-named read-outs stand apart in the source and are kept apart here."}
{"smiles": "CC(=O)C[C@H](c1ccccc1)c1c(O)c2ccccc2oc1=O", "note": "[(R)-Warfarin, (R)-warfarin]", "values": [{"measurement": "AUCinf", "setting": "[1]; [14]", "value": "67,092 ± 18,315 ng h/mL"}, {"measurement": "AUCinf", "setting": "[1]; [15]", "value": "68,723 ± 12,736 ng h/mL"}, {"measurement": "AUCinf", "setting": "[1]; [16]", "value": "75,652 ± 18,160 ng h/mL"}, {"measurement": "CL/F", "setting": "[1]; [17]", "value": "0.18 ± 0.04", "unit": "L/h"}, {"measurement": "C max", "setting": "[1]; [17]", "value": "1240 ± 134", "unit": "ng/mL"}, {"measurement": "t max", "setting": "[1]; [17]", "value": "4.0 (1.0–12.0) h"}, {"measurement": "CL/F", "setting": "[1]; [18]", "value": "0.17 ± 0.03", "unit": "L/h"}, {"measurement": "C max", "setting": "[1]; [18]", "value": "1262 ± 232", "unit": "ng/mL"}, {"measurement": "t max", "setting": "[1]; [18]", "value": "4.0 (2.0–12.0) h"}, {"measurement": "CL/F", "setting": "[1]; [19]", "value": "0.17 ± 0.04", "unit": "L/h"}, {"measurement": "C max", "setting": "[1]; [19]", "value": "1197 ± 133", "unit": "ng/mL"}, {"measurement": "t max", "setting": "[1]; [19]", "value": "4.0 (2.0–4.0) h"}, {"measurement": "CL/F", "setting": "[1]; [20]", "value": "0.16 ± 0.04", "unit": "L/h"}, {"measurement": "C max", "setting": "[1]; [20]", "value": "1187 ± 149", "unit": "ng/mL"}, {"measurement": "t max", "setting": "[1]; [20]", "value": "4.0 (2.0–12.0) h"}]}
{"smiles": "CC(=O)C[C@@H](c1ccccc1)c1c(O)c2ccccc2oc1=O", "note": "[(S)-Warfarin, (S)-warfarin]", "values": [{"measurement": "AUCinf", "setting": "[1]; [14]", "value": "46,725 ± 18,437 ng h/mL"}, {"measurement": "AUCinf", "setting": "[1]; [15]", "value": "45,032 ± 23,503 ng h/mL"}, {"measurement": "AUCinf", "setting": "[1]; [16]", "value": "50,329 ± 24,609 ng h/mL"}, {"measurement": "CL/F", "setting": "[1]; [17]", "value": "0.26 ± 0.07", "unit": "L/h"}, {"measurement": "C max", "setting": "[1]; [17]", "value": "1217 ± 134", "unit": "ng/mL"}, {"measurement": "t max", "setting": "[1]; [17]", "value": "4.0 (1.0–4.0) h"}, {"measurement": "CL/F", "setting": "[1]; [18]", "value": "0.27 ± 0.08", "unit": "L/h"}, {"measurement": "C max", "setting": "[1]; [18]", "value": "1251 ± 237", "unit": "ng/mL"}, {"measurement": "t max", "setting": "[1]; [18]", "value": "2.0 (1.0–4.0) h"}, {"measurement": "CL/F", "setting": "[1]; [19]", "value": "0.25 ± 0.07", "unit": "L/h"}, {"measurement": "C max", "setting": "[1]; [19]", "value": "1194 ± 132", "unit": "ng/mL"}, {"measurement": "t max", "setting": "[1]; [19]", "value": "4.0 (2.0–4.0) h"}, {"measurement": "CL/F", "setting": "[1]; [20]", "value": "0.25 ± 0.08", "unit": "L/h"}, {"measurement": "C max", "setting": "[1]; [20]", "value": "1168 ± 162", "unit": "ng/mL"}, {"measurement": "t max", "setting": "[1]; [20]", "value": "4.0 (1.0–4.0) h"}]}
{"smiles": "Cc1cccc(C)c1N(CC(=O)Nc1ccc(-c2ncon2)cc1)C(=O)C1CCS(=O)(=O)CC1", "note": "[Amenamevir, amenamevir]", "values": [{"measurement": "correlation of metabolism with marker-enzyme activity", "setting": "[2]", "value": "significantly correlated"}, {"measurement": "correlation of metabolism with marker-enzyme activity", "setting": "[3]", "value": "significantly correlated"}, {"measurement": "urinary excretion as unchanged drug", "setting": "[4]", "value": "approximately 10%"}, {"measurement": "CL/F", "setting": "[5]; amenamevir 400 mg + rifampicin 600 mg once daily", "value": "133.5 ± 40.0", "unit": "L/h"}, {"measurement": "CL/F", "setting": "[5]; amenamevir 400 mg alone", "value": "22.1 ± 5.9", "unit": "L/h"}, {"measurement": "pharmacokinetic interaction with rifampicin (90% CI of LS GMR vs 0.80–1.25)", "setting": "[5]; based on C max and AUCinf", "value": "significant interaction"}, {"measurement": "Cmax", "setting": "[5]; human, plasma, oral, 400 mg", "value": "1320 ± 282", "unit": "ng/mL"}, {"measurement": "half-life", "setting": "[5]; human, plasma, oral, 400 mg", "value": "8 ± 1.2", "unit": "h"}, {"measurement": "t max", "setting": "[5]; human, plasma, oral, 400 mg", "value": 3, "unit": "h"}, {"measurement": "decrease of mean t ½", "setting": "[5]; [21]", "value": 2.7, "unit": "fold"}, {"measurement": "increase of mean CL/F", "setting": "[5]; [21]", "value": "sixfold"}, {"measurement": "change of AUCinf when administered with food", "setting": "[6]", "value": "almost doubling"}, {"measurement": "induction of enzyme activity", "setting": "[7]", "value": "weak potential for inducing"}, {"measurement": "induction of enzyme activity", "setting": "[8]", "value": "potentially induces"}, {"measurement": "deaths, serious adverse events", "setting": "[9]; across all four studies", "value": "no deaths or serious adverse events reported"}, {"measurement": "safety and tolerability", "setting": "[9]; across all four studies, healthy male adults", "value": "safe and generally well tolerated"}, {"measurement": "participants reporting TEAEs", "setting": "[9]; study 15L-CL-010, group that received the 200-mg dose of amenamevir (with single doses of midazolam 7.5 mg)", "value": 9.1, "unit": "%"}, {"measurement": "participants reporting TEAEs", "setting": "[9]; study 15L-CL-010, group that received the 400-mg dose of amenamevir (with single doses of midazolam 7.5 mg)", "value": 9.1, "unit": "%"}, {"measurement": "TEAEs considered to be related to the study drug", "setting": "[9]; study 15L-CL-018, 200-mg amenamevir dose", "value": "myalgia"}, {"measurement": "TEAEs considered to be related to the study drug", "setting": "[9]; study 15L-CL-018, 400-mg amenamevir dose", "value": "back pain, abdominal pain, and dyspepsia"}, {"measurement": "induction of enzyme activity", "setting": "[10]", "value": "potentially induces"}, {"measurement": "CL/F", "setting": "[11]; amenamevir 400 mg + ketoconazole 400 mg once daily", "value": "8.0 ± 2.1", "unit": "L/h"}, {"measurement": "CL/F", "setting": "[11]; amenamevir 400 mg alone", "value": "20.8 ± 5.9", "unit": "L/h"}, {"measurement": "pharmacokinetic interaction with ketoconazole (90% CI of LS GMR vs 0.80–1.25)", "setting": "[11]; based on AUCinf", "value": "significant interaction"}, {"measurement": "Cmax", "setting": "[11]; human, plasma, oral, 400 mg", "value": "1450 ± 329", "unit": "ng/mL"}, {"measurement": "half-life", "setting": "[11]; human, plasma, oral, 400 mg", "value": "8.1 ± 1.9", "unit": "h"}, {"measurement": "t max", "setting": "[11]; human, plasma, oral, 400 mg", "value": 4, "unit": "h"}, {"measurement": "decrease of CL/F", "setting": "[11]; [22]", "value": 2.6, "unit": "fold"}, {"measurement": "increase of mean t ½", "setting": "[11]; [22]", "value": 2.2, "unit": "fold"}]}
{"smiles": "Cc1ncc2n1-c1ccc(Cl)cc1C(c1ccccc1F)=NC2", "note": "[Midazolam, midazolam]", "values": [{"measurement": "pharmacokinetic interaction with amenamevir (90% CI of LS GMR vs 0.80–1.25)", "setting": "[12]; amenamevir 400 mg once daily, based on C max and AUCinf", "value": "significant interaction"}, {"measurement": "pharmacokinetic interaction with amenamevir (90% CI of LS GMR vs 0.80–1.25)", "setting": "[12]; amenamevir 200-mg dose, based on AUCinf", "value": "significant interaction"}, {"measurement": "t max", "setting": "[12]; human, plasma, oral, 200 mg", "value": 1.5, "unit": "h"}, {"measurement": "t max", "setting": "[12]; human, plasma, oral, 400 mg", "value": 1.5, "unit": "h"}, {"measurement": "CL/F", "setting": "[12]; midazolam + amenamevir 200 mg once daily", "value": "109.0 ± 43.4", "unit": "L/h"}, {"measurement": "CL/F", "setting": "[12]; midazolam + amenamevir 400 mg once daily", "value": "143.8 ± 68.0", "unit": "L/h"}, {"measurement": "t max", "setting": "[12]; midazolam + amenamevir 400 mg once daily, median (range)", "value": "1.0 (0.5–4.0) h"}, {"measurement": "CL/F", "setting": "[12]; midazolam alone, amenamevir 200 mg group", "value": "80.1 ± 37.0", "unit": "L/h"}, {"measurement": "CL/F", "setting": "[12]; midazolam alone, amenamevir 400 mg group", "value": "78.2 ± 39.2", "unit": "L/h"}]}
{"smiles": "CC(=O)CC(c1ccccc1)c1c(O)c2ccccc2oc1=O", "note": "(centres unmarked) [Warfarin, warfarin]", "values": [{"measurement": "AUCPT;0–168 h", "setting": "[13]; warfarin + amenamevir 200 mg once daily, n = 18", "value": "2411 ± 199", "unit": "s h"}, {"measurement": "AUCPT;0–168 h", "setting": "[13]; warfarin + amenamevir 400 mg once daily, n = 15", "value": "2425 ± 163", "unit": "s h"}, {"measurement": "AUCPT;0–168 h", "setting": "[13]; warfarin alone, amenamevir 400 mg group, n = 17", "value": "2556 ± 254", "unit": "s h"}, {"measurement": "tPTmax", "setting": "[13]; warfarin alone, amenamevir 400 mg group, arithmetic mean ± SD", "value": "39.5 ± 14.6", "unit": "h"}, {"measurement": "TEAEs considered to be related to the study drug", "setting": "[9]; study 15L-CL-018, warfarin 25 mg alone", "value": "nausea and dyspepsia"}]}
{"smiles": "CC(=O)N1CCN(c2ccc(OCC3COC(Cn4ccnc4)(c4ccc(Cl)cc4Cl)O3)cc2)CC1", "note": "(centres unmarked) [ketoconazole]", "values": [{"measurement": "participants reporting headache (TEAE)", "setting": "[9]; study 15L-CL-008, during the treatment named, n = 22", "value": 18.2, "unit": "%"}]}
